Measured values reported in patent publication US20260250320A1, “LIPIDATED PEPTIDE INHIBITORS OF INTERLEUKIN-23 RECEPTOR” (Janssen Pharmaceutica NV, priority 2023, published 2026).
*1 amine or outer side, *2 acyl side, *3 side chain or, on linkers, in order; H or OH if unused. Where a SMILES comes first, the peptide text is derived from it. Bridges are numbered along the chain shown (N, C = ends). Side-chain parts run from the residue outwards. [ ]: non-standard residue; d: D form. The star is where a group is joined. ξ: configuration not given here. X33 = C[N+](C)(CCNC(=O)CCOCCOCCOCCOCCOCCOCCOCCOCCOCCOCCOCCOCCNC(=O)CC[C@H](CC(=O)CCCCCCCCCCCCCCCCC(=O)O)C(=O)O)CC(=O)*; X9 = O=C(O)CCCCCCCCCCCCCCCCC(=O)N[C@@H](CCC(=O)NCCOCCOCCOCCOCCOCCOCCOCCOCCOCCOCCOCCCCCC(=O)*)C(=O)O; Me3N+(CH2)2O(CH2)2O(CH2)2CO = C[N+](C)(C)CCOCCOCCC(=O)*; Trp(7-Me) = Cc1cccc2c(C[C@H](N)C(=O)O)c[nH]c12; C18 diacid = O=C(O)CCCCCCCCCCCCCCCCC(=O)*; γGlu = O=C(O)[C@H](CCC(=O)[*:2])N[*:1]; 2Nal = N[C@@H](Cc1ccc2ccccc2c1)C(=O)O; AEF = NCCOc1ccc(C[C@H](N)C(=O)O)cc1; 3Pal = N[C@@H](Cc1cccnc1)C(=O)O; Lys(Me) = CNCCCC[C@H](N)C(=O)O; Pen = CC(C)(S)[C@H](N)C(=O)O; ξ3Pal = NC(Cc1cccnc1)C(=O)O; Ac6c = NC1(C(=O)O)CCCCC1; Thp = NC1(C(=O)O)CCOCC1; X1 = C[N+](C)(C)CCCCC*; AEEA = NCCOCCOCC(=O)O; Sar = CNCC(=O)O

How the values were obtained:
[1] = test system: IL-23-stimulated phosphorylated STAT3 in peripheral blood mononuclear cells (PBMCs); assay: PBMC pSTAT3 Assay; assay type: cell-based; conditions: PBMCs from healthy donors; 30 min preincubation with peptide; IL-23 5 ng/mL for 30 min; phospho-STAT3 by MSD
Summary of the method: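 Healthy-donor PBMCs expanded 4 days on anti-CD3 with 100 ng/mL IL-1β, starved ~4 h in RPMI-0.1% BSA, preincubated 30 min with peptide, then stimulated 30 min at 37 °C with 5 ng/mL IL-23. Lysate pSTAT3 measured by MSD phospho-STAT panel; IC50 derived.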

IL-23R = molecular target: T1, IL-23R (Homo sapiens, UniProt Q5VWK5); assay: IL23R Reporter Assay; assay type: cell-based; conditions: HEK293 cells containing IL-23R, IL-12Rβ1 and STAT-inducible firefly luciferase reporter; 10 ng/mL IL-23 (EC90); 5 h
T1 construct: HEK293 cells containing IL-23R, IL-12Rβ1 and a firefly luciferase reporter gene driven by a STAT-inducible promoter (Promega); host or cells: HEK293
T1 sequence (Q5VWK5 24-629): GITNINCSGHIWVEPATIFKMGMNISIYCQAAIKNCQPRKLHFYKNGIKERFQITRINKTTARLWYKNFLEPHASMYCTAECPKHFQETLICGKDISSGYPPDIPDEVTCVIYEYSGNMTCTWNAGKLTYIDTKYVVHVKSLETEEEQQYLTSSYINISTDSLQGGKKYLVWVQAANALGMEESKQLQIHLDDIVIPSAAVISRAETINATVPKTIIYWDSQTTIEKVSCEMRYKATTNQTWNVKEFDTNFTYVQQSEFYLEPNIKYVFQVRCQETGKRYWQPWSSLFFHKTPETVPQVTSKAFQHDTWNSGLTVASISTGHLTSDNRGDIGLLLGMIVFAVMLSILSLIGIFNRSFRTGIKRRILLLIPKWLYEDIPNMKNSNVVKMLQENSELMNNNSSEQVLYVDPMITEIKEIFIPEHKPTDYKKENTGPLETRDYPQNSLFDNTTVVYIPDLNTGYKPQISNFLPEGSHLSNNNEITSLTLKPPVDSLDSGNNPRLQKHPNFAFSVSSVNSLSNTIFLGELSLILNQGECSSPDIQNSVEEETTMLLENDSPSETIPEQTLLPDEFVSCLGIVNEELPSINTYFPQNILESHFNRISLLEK
Summary of the method: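 HEK293 cells carrying IL-23R, IL-12Rβ1 and a STAT-driven firefly luciferase reporter (4000 cells/well) received compound, then 10 ng/mL IL-23 solution (EC90), and were incubated for 5 h at 37° C. BioGlo luminescence was normalised to IL-23 alone (0%) and 30 μM control inhibitor (100%). IC50 came from a 4-parameter Hill fit.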

In the case of `CC(=O)NCCCC[C@@H]1NC(=O)[C@H](Cc2c[nH]c3c(C)cccc23)NC(=O)[C@H]([C@@H](C)O)NC(=O)[C@H](CC(N)=O)NC(=O)[C@@H](NC(C)=O)C(C)(C)SSC(C)(C)[C@@H](C(=O)N[C@@H](Cc2ccc(OCCN)cc2)C(=O)N[C@@H](Cc2ccc3ccccc3c2)C(=O)NC2(C(=O)N[C@@H](CCC(=O)O)C(=O)N[C@@H](CC(N)=O)C(=O)N[C@@H](Cc3cccnc3)C(=O)N(C)CC(=O)N[C@@H](CCCCNC(=O)COCCOCCN(C)C(=O)COCCOCCN(C)C(=O)CC[C@@H](C(=O)O)N(C)C(=O)CCCCCCCCCCCCCCCCCc3nnn[nH]3)C(N)=O)CCOCC2)NC1=O` [compound 3, MeCO-Pen(3)-N-T-7MeW-K(Ac)-Pen(3)-AEF-2Nal-THP-E-N-3Pya-Sar-K(PEG2NMePEG2NMegENMeC18Tetrazole)-CONH2], the IC50 [1] is reported as less than 0.5 nM and the IC50 (IL-23R) is reported as less than 50 nM.

`CC(=O)N(C)CCCC[C@@H]1NC(=O)[C@H](Cc2c[nH]c3c(C)cccc23)NC(=O)[C@H]([C@@H](C)O)NC(=O)[C@H](CCCCNC(=O)CCCCCOCCOCCOCCOCCOCCOCCOCCOCCOCCOCCOCCNC(=O)CC[C@H](NC(=O)CCCCCCCCCCCCCCCCC(=O)O)C(=O)O)NC(=O)[C@@H](NC(=O)CCOCCOCC[N+](C)(C)C)C(C)(C)SSC(C)(C)[C@@H](C(=O)N[C@@H](Cc2ccc(OCCCCC[N+](C)(C)C)cc2)C(=O)N[C@@H](Cc2ccc3ccccc3c2)C(=O)NC2(C(=O)N[C@@H](CCCCN(C)C(C)=O)C(=O)N[C@@H](CC(N)=O)C(=O)N[C@@H](Cc3cccnc3)C(=O)N(C)CC(=O)N(C)C)CCOCC2)NC1=O` [compound 115, cPEG3aCO-Pen(3)-K(PEG12gEC20OH)-T-7MeW-K(NMeAc)-Pen(3)-TMAPF-2Nal-THP-K(NMeAc)-N-3Pya-Sar-CON(Me)2] ({Me3N+(CH2)2O(CH2)2O(CH2)2CO}-[Pen]K(X9)T[Trp(7-Me)][Lys(Me)](Ac)[Pen]Y(X1)[2Nal][Thp][Lys(Me)](Ac)N[3Pal][Sar]-NMe2; disulfide 1-6) gave an IC50 [1] of 0.5 to 5 nM and an IC50 (IL-23R) of less than 50 nM.

In the case of `CC(=O)N(C)CCCC[C@H](NC(=O)CNC(=O)[C@H](Cc1ccc2ccccc2c1)NC(=O)[C@H](Cc1ccc(OCCCCC[N+](C)(C)C)cc1)NC(=O)[C@H]1NC(=O)[C@H](CCCCNC(=O)COCCOCCNC(=O)COCCOCCNC(=O)CC[C@H](NC(=O)CCCCCCCCCCCCCCCCC(=O)O)C(=O)O)NC(=O)[C@H](Cc2c[nH]c3c(C)cccc23)NC(=O)[C@H]([C@@H](C)O)NC(=O)[C@H](CC(=O)N(C)C)NC(=O)[C@@H](NC(=O)CCOCCOCC[N+](C)(C)C)C(C)(C)SSC1(C)C)C(=O)N[C@@H](CC(N)=O)C(=O)N[C@@H](Cc1cccnc1)C(=O)N(C)CC(=O)N(C)C` [compound 157, cPEG3aCO-Pen(3)-N(N(Me)2)-T-7MeW-K(PEG2PEG2gEC18OH)-Pen(3)-APEG3F-2Nal-THP-K(NMeAc)-N-3Pya-Sar-CON(Me)2] ({Me3N+(CH2)2O(CH2)2O(CH2)2CO}-[Pen]D(NMe2)T[Trp(7-Me)]K([AEEA-AEEA-γGlu-C18 diacid])[Pen]Y(X1)[2Nal]G[Lys(Me)](Ac)N[3Pal][Sar]-NMe2; disulfide 1-6), the IC50 [1] is reported as 0.5 to 5 nM and the IC50 (IL-23R) is reported as 50 to 500 nM.

Work on `CC(=O)N(C)CCCC[C@@H]1NC(=O)[C@H](Cc2c[nH]c3c(C)cccc23)NC(=O)[C@H]([C@@H](C)O)NC(=O)[C@H](CC(=O)N(C)C)NC(=O)[C@@H](NC(=O)CCOCCOCC[N+](C)(C)C)C(C)(C)SSC(C)(C)[C@@H](C(=O)N[C@@H](Cc2ccc(OCCNC(=O)C[N+](C)(C)CCNC(=O)CCOCCOCCOCCOCCOCCOCCOCCOCCOCCOCCOCCOCCNC(=O)CC[C@H](CC(=O)CCCCCCCCCCCCCCCCC(=O)O)C(=O)O)cc2)C(=O)N[C@@H](Cc2ccc3ccccc3c2)C(=O)NC2(C(=O)N[C@@H](CCCCN(C)C(C)=O)C(=O)N[C@@H](CC(N)=O)C(=O)NC(Cc3cccnc3)C(=O)N(C)CC(=O)N(C)C)CCCCC2)NC1=O` (stereo partly drawn) [compound 141, cPEG3aCO-Pen(3)-N(N(Me)2)-T-7MeW-K(NMeAc)-Pen(3)-AEF(SP6PEG12gEC18OH)-2Nal-THP-K(NMeAc)-N-3Pya-Sar-CON(Me)2] ({Me3N+(CH2)2O(CH2)2O(CH2)2CO}-[Pen]D(NMe2)T[Trp(7-Me)][Lys(Me)](Ac)[Pen][AEF](X33)[2Nal][Ac6c][Lys(Me)](Ac)N[ξ3Pal][Sar]-NMe2; disulfide 1-6) yielded an IC50 [1] of less than 0.5 nM and an IC50 (IL-23R) of less than 50 nM.
